Experimental data reported in patent US10246446B2, “Blockers of the growth hormone receptor in disease prevention and treatment” (UNIVERSITY OF SOUTHERN CALIFORNIA, priority 2015, dated 2019).

Tests used:
Format in all cases: cell-based
human GHR [1] = target: T1, human GHR (Homo sapiens, UniProt P10912); test: c-fos reporter luciferase assay, GH-stimulated cells; conditions: for GH induced increase in c-fos reporter activity: FIG. 5A; for c-fos reporter activity, % of untreated controls: cells serum starved, incubated with test compound (10 μM), treated with GH, normalized to renilla luciferase
T1 construct: expressed in transfected cells; HEK293 according to the assay procedure
T1 sequence (P10912 19-638): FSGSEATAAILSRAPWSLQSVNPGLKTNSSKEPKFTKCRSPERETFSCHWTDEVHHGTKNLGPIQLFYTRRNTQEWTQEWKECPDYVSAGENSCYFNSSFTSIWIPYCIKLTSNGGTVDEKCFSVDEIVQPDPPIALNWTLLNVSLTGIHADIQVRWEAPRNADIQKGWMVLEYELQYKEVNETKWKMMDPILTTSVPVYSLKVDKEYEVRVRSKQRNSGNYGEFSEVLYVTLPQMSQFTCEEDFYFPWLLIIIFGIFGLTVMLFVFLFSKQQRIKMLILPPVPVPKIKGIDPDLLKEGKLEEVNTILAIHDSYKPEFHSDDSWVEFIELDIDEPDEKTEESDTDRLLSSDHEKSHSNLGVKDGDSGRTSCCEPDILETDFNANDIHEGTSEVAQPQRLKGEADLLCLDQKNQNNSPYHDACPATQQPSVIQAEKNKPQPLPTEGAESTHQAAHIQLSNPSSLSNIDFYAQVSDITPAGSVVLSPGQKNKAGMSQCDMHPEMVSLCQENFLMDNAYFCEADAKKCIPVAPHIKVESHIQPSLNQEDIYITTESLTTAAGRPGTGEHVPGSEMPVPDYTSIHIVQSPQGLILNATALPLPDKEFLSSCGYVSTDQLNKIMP
Protocol: (§1) FIG. 5A. Lead compounds (#34, 37, 38) identified by luciferase reporter assays. Mouse L cells expressing human GHR were transfected with c-fos or SOCS2 reporter luciferase plasmids. Cells were serum starved, incubated with test compounds (#34, 37, 38) and then treated with GH. Data are normalized to co-transfected CMV-driven renilla luciferase and expressed as relative light units (RLU). (A) c-fos reporter luciferase activity.
(§2) In order to perform high throughput screening (HTS) for inhibitors of GHR, HEK293 cell lines permanently transfected were established with a luciferase reporter driven by either c-fos or SOCS2 promoter (FIG. 7).
(§3) The SOCS (Suppressor of Cytokine Signaling) proteins are induced by GH and act as negative regulators of cytokine signaling pathways. […] Luciferase reporter constructs where the luciferase gene is under the control of promoters of either SOCS2 or c-fos have been stably transfected into human embryonic kidney, HEK293 cells. Cells were serum starved (0.5% FBS) for 24 hours to prevent interference by other growth factors and then treated with 5 or 10 nM hGH (established in dose response studies) and 10 μM of each test compound for 24 hours. This is followed by lysis and analysis of luciferase activity using the luciferase reporter assay (Promega). Each compound is tested in triplicate in a 96 well plate format.

human GHR [2] = target: T1, human GHR; test: SOCS2 reporter luciferase assay, GH-stimulated cells; conditions: for GH induced increase in SOCS2 reporter activity: FIG. 5B; for SOCS2 reporter activity, % of untreated controls: cells serum starved, incubated with test compound (10 μM), treated with GH, normalized to renilla luciferase
Protocol: as §1, with “5B.” for “5A.”, “starved, then” for “starved,”, “before GH treatment.” for “and then treated with GH.”, “were” for “are”, “(B) SOCS2” for “(A) c-fos”
FIG. 7. High throughput screening (HTS) platform for the identification of GHR inhibitors. Mouse L cells expressing human GHR were transfected with SOCS2 reporter luciferase plasmids. Cells were serum starved, pre-treated with test compounds (numbered as shown) and then GH. Data are normalized to CMV renilla luciferase and expressed as relative light units (RLU).
as §2, §3

human GHR [3] = test: STAT5 phosphorylation assay (western blot), small molecules; conditions: mouse L cells expressing human GHR; compound 30 min prior to 5 nM hGH; FIG. 6
Protocol: FIG. 6. […] (A) Mouse L cells were incubated in 0.5% serum for 24 hours. Cells were treated with compounds 34, 37 or 38 for 30 min prior to 5 nM hGH treatment. The growth hormone antagonist (GHA) was used as a positive control.
The JAK/STAT signaling pathway is the principal signaling mechanism for a variety of growth factors and cytokines. In the growth hormone signaling pathway, dimerization of the GHR in response to GH binding leads to the activation of JAK by transphosphorylation. Activated JAK phosphorylates STAT5, which can then enter the nucleus and activate transcription of target genes. Inhibition of STAT5 phosphorylation will be used to analyze GHR antagonistic properties of the test compounds.
Mouse L fibroblasts engineered to express […] were obtained from Dr. John Kopchick. Serum starved L cells (0.5% FBS for 24 hours) were pre-treated for 30 minutes with 10 μM of each compound identified as a hit from the luciferase assays. Following this, cells were treated with 5 or 10 nM hGH for 10 minutes. Cells were collected and processed for western blotting with phospho-STAT5 and total STAT5 antibodies (Cell Signaling). The GHR antagonist, G120K is used as a positive control. Band intensity was analyzed using ImageJ and STAT5 phosphorylation normalized to total STAT5 levels. Compounds that inhibited STAT5 phosphorylation were selected for further drug optimization.

SMILES: CNS(=O)(=O)c1cc(NC(=O)c2ccc(CSc3ccccc3)o2)ccc1C [Compound 37]
- GH induced increase in c-fos reporter activity (human GHR [1]): inhibited
- c-fos reporter activity, % of untreated controls (human GHR [1]): 27%
- GH induced increase in SOCS2 reporter activity (human GHR [2]): inhibited
- SOCS2 reporter activity, % of untreated controls (human GHR [2]): 61%
- GH induced phosphorylation of STAT5 (human GHR [3]): able to inhibit phosphorylation of STAT5

SMILES: O=C(Nc1cccc(S(=O)(=O)N2CCCCCC2)c1)c1ccco1 [Compound 34]
- GH induced increase in c-fos reporter activity (human GHR [1]): inhibited
- c-fos reporter activity, % of untreated controls (human GHR [1]): 57%
- GH induced increase in SOCS2 reporter activity (human GHR [2]): inhibited
- SOCS2 reporter activity, % of untreated controls (human GHR [2]): 76%
- GH induced phosphorylation of STAT5 (human GHR [3]): able to inhibit phosphorylation of STAT5
